Source: the supplement of paper PMC10307832

What was measured:
Test in all cases: relative viability (nuclei count vs DMSO), 5 days (fraction); higher = more cells survive
UMC-11 = test system: UMC-11
Method in brief: (§1)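 The day after seeding in 1536-well plates, lung cancer cell lines were treated by pin tool with a single drug, or with a fixed anchor-drug dose together with five library-drug doses (not always all listed) in √10 steps. After 5 days, a combined fix-and-stain solution (final 0.05% Triton X-100, 1% formaldehyde, 1 ug/ml Hoechst) was added. Nuclei counted on 4× images gave relative viability as treated counts over vehicle counts, reported as the median of duplicate plates.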

COR-L 105 = test system: COR-L 105
Method in brief: as §1

NCI-H1792 = test system: NCI-H1792
Method in brief: as §1

NCI-H1944 = test system: NCI-H1944
Method in brief: as §1

SK-LU-1 = test system: SK-LU-1
Method in brief: as §1

NCI-H2009 = test system: NCI-H2009
Method in brief: as §1

LC-2-ad = test system: LC-2-ad
Method in brief: as §1

A-427 = test system: A-427
Method in brief: as §1

LU99A = test system: LU99A
Method in brief: as §1

NCI-H2085 = test system: NCI-H2085
Method in brief: as §1

SW 900 = test system: SW 900
Method in brief: as §1

NCI-H1666 = test system: NCI-H1666
Method in brief: as §1

HCC-78 = test system: HCC-78
Method in brief: as §1

LXF-289 = test system: LXF-289
Method in brief: as §1

NCI-H1915 = test system: NCI-H1915
Method in brief: as §1

NCI-H460 = test system: NCI-H460
Method in brief: as §1

NCI-H1793 = test system: NCI-H1793
Method in brief: as §1

HOP-62 = test system: HOP-62
Method in brief: as §1

NCI-H2170 = test system: NCI-H2170
Method in brief: as §1

HCC-366 = test system: HCC-366
Method in brief: as §1

EPLC-272H = test system: EPLC-272H
Method in brief: as §1

NCI-H358 = test system: NCI-H358
Method in brief: as §1

Nc1ccn([C@@H]2O[C@H](CO)[C@@H](O)[C@@H]2O)c(=O)n1 [Cytarabine] + Nc1nc2[nH]cc(CCc3ccc(C(=O)N[C@@H](CCC(=O)O)C(=O)O)cc3)c2c(=O)[nH]1 [Pemetrexed] (partner 0.2 µM)
relative viability (UMC-11; first compound 0.005 µM): 0.551 | relative viability (UMC-11; first compound 0.01581 µM): 0.491 | relative viability (UMC-11; first compound 0.05 µM): 0.428 | relative viability (UMC-11; first compound 0.1581 µM): 0.226 | relative viability (UMC-11; first compound 0.5 µM): 0.195 | relative viability (COR-L 105; first compound 0.005 µM): 0.961 | relative viability (COR-L 105; first compound 0.01581 µM): 1.19 | relative viability (COR-L 105; first compound 0.05 µM): 0.678 | relative viability (COR-L 105; first compound 0.1581 µM): 0.579 | relative viability (COR-L 105; first compound 0.5 µM): 0.383 | relative viability (NCI-H1792; first compound 0.01581 µM): 0.672 | relative viability (NCI-H1792; first compound 0.05 µM): 0.751 | relative viability (NCI-H1792; first compound 0.1581 µM): 0.182 | relative viability (NCI-H1792; first compound 0.5 µM): 0.115 | relative viability (NCI-H1944; first compound 0.005 µM): 0.505 | relative viability (NCI-H1944; first compound 0.01581 µM): 0.312 | relative viability (NCI-H1944; first compound 0.05 µM): 0.241 | relative viability (NCI-H1944; first compound 0.1581 µM): 0.14 | relative viability (NCI-H1944; first compound 0.5 µM): 0.116 | relative viability (SK-LU-1; first compound 0.005 µM): 0.827 | relative viability (SK-LU-1; first compound 0.01581 µM): 0.732 | relative viability (SK-LU-1; first compound 0.05 µM): 0.642 | relative viability (SK-LU-1; first compound 0.1581 µM): 0.377 | relative viability (SK-LU-1; first compound 0.5 µM): 0.331 | relative viability (NCI-H2009; first compound 0.005 µM): 0.971 | relative viability (NCI-H2009; first compound 0.01581 µM): 0.99 | relative viability (NCI-H2009; first compound 0.05 µM): 0.996 | relative viability (NCI-H2009; first compound 0.1581 µM): 0.827 | relative viability (NCI-H2009; first compound 0.5 µM): 0.258 | relative viability (LC-2-ad; first compound 0.005 µM): 0.28 | relative viability (LC-2-ad; first compound 0.01581 µM): 0.31 | relative viability (LC-2-ad; first compound 0.05 µM): 0.286 | relative viability (LC-2-ad; first compound 0.1581 µM): 0.268 | relative viability (LC-2-ad; first compound 0.5 µM): 0.265 | relative viability (A-427; first compound 0.005 µM): 0.745 | relative viability (A-427; first compound 0.01581 µM): 0.509 | relative viability (A-427; first compound 0.05 µM): 0.332 | relative viability (A-427; first compound 0.1581 µM): 0.27 | relative viability (A-427; first compound 0.5 µM): 0.253 | relative viability (LU99A; first compound 0.005 µM): 0.22 | relative viability (LU99A; first compound 0.01581 µM): 0.179 | relative viability (LU99A; first compound 0.05 µM): 0.177 | relative viability (LU99A; first compound 0.1581 µM): 0.195 | relative viability (LU99A; first compound 0.5 µM): 0.163 | relative viability (NCI-H2085; first compound 0.005 µM): 0.788 | relative viability (NCI-H2085; first compound 0.01581 µM): 0.921 | relative viability (NCI-H2085; first compound 0.05 µM): 0.906 | relative viability (NCI-H2085; first compound 0.1581 µM): 0.703 | relative viability (NCI-H2085; first compound 0.5 µM): 0.547 | relative viability (SW 900; first compound 0.005 µM): 0.432 | relative viability (SW 900; first compound 0.01581 µM): 0.499 | relative viability (SW 900; first compound 0.05 µM): 0.441 | relative viability (SW 900; first compound 0.1581 µM): 0.179 | relative viability (SW 900; first compound 0.5 µM): 0.143 | relative viability (NCI-H1666; first compound 0.005 µM): 0.761 | relative viability (NCI-H1666; first compound 0.01581 µM): 0.718 | relative viability (NCI-H1666; first compound 0.05 µM): 0.754 | relative viability (NCI-H1666; first compound 0.1581 µM): 0.655 | relative viability (NCI-H1666; first compound 0.5 µM): 0.616 | relative viability (HCC-78; first compound 0.005 µM): 0.824 | relative viability (HCC-78; first compound 0.01581 µM): 0.918 | relative viability (HCC-78; first compound 0.05 µM): 0.889 | relative viability (HCC-78; first compound 0.1581 µM): 0.936 | relative viability (HCC-78; first compound 0.5 µM): 0.894 | relative viability (LXF-289; first compound 0.005 µM): 0.729 | relative viability (LXF-289; first compound 0.01581 µM): 0.864 | relative viability (LXF-289; first compound 0.05 µM): 0.808 | relative viability (LXF-289; first compound 0.1581 µM): 0.36 | relative viability (LXF-289; first compound 0.5 µM): 0.268 | relative viability (NCI-H1915; first compound 0.005 µM): 0.506 | relative viability (NCI-H1915; first compound 0.01581 µM): 0.563 | relative viability (NCI-H1915; first compound 0.05 µM): 0.54 | relative viability (NCI-H1915; first compound 0.1581 µM): 0.45 | relative viability (NCI-H1915; first compound 0.5 µM): 0.333 | relative viability (NCI-H460; first compound 0.005 µM): 0.0718 | relative viability (NCI-H460; first compound 0.01581 µM): 0.0671 | relative viability (NCI-H460; first compound 0.05 µM): 0.0853 | relative viability (NCI-H460; first compound 0.1581 µM): 0.0459 | relative viability (NCI-H460; first compound 0.5 µM): 0.037 | relative viability (NCI-H1793; first compound 0.005 µM): 0.902 | relative viability (NCI-H1793; first compound 0.01581 µM): 0.827 | relative viability (NCI-H1793; first compound 0.05 µM): 0.827 | relative viability (NCI-H1793; first compound 0.1581 µM): 0.374 | relative viability (NCI-H1793; first compound 0.5 µM): 0.206 | relative viability (HOP-62; first compound 0.005 µM): 0.388 | relative viability (HOP-62; first compound 0.01581 µM): 0.411 | relative viability (HOP-62; first compound 0.05 µM): 0.309 | relative viability (HOP-62; first compound 0.1581 µM): 0.113 | relative viability (HOP-62; first compound 0.5 µM): 0.072 | relative viability (NCI-H2170; first compound 0.005 µM): 0.331 | relative viability (NCI-H2170; first compound 0.01581 µM): 0.291 | relative viability (NCI-H2170; first compound 0.05 µM): 0.333 | relative viability (NCI-H2170; first compound 0.1581 µM): 0.205 | relative viability (NCI-H2170; first compound 0.5 µM): 0.183 | relative viability (HCC-366; first compound 0.005 µM): 0.161 | relative viability (HCC-366; first compound 0.01581 µM): 0.217 | relative viability (HCC-366; first compound 0.05 µM): 0.25 | relative viability (HCC-366; first compound 0.1581 µM): 0.0693 | relative viability (HCC-366; first compound 0.5 µM): 0.062 | relative viability (EPLC-272H; first compound 0.005 µM): 0.232 | relative viability (EPLC-272H; first compound 0.01581 µM): 0.338 | relative viability (EPLC-272H; first compound 0.05 µM): 0.289 | relative viability (EPLC-272H; first compound 0.1581 µM): 0.27 | relative viability (EPLC-272H; first compound 0.5 µM): 0.222 | relative viability (NCI-H358; first compound 0.005 µM): 0.195 | relative viability (NCI-H358; first compound 0.01581 µM): 0.188 | relative viability (NCI-H358; first compound 0.05 µM): 0.185 | relative viability (NCI-H358; first compound 0.1581 µM): 0.168 | relative viability (NCI-H358; first compound 0.5 µM): 0.116
